System: amnesia induced by exposure to carbon dioxide gas
Assay: Action against amnesia induced by exposure to carbon dioxide gas (step-through passive avoidance)
Format: in vivo, Std: ddy strain male mice
Conditions: for Reaction latency(sec) Mean±S.E: orally immediately after exposure to carbon dioxide gas and one hour before retention trial, retention trial after 24 hours, maximum 300 seconds; for Rate of improvement (%): orally, relative to CO2 treated and non-treated groups
Description: The apparatus used was a passive avoidance apparatus of a step-through type (made by O'Hara Co., Ltd.). In the aquisition trial, each mouse was placed in the light compartment, a guillotine door of partition thereof was opened after 10 seconds, the guillotine door was closed as soon as the mouse moved into the dark compartment and an electric shock of 33 - 50 v was given for 1 second through the metal grid bars of the floor. Immediately after the electric shock was given, the mouse was taken out and was accommodated in a container having volume of ca. 300 ml filled with carbon dioxide gas. After immediately exposed to carbon dioxide gas having flow rate of ca. 5 liter/min. for 25 - 45 seconds, the mouse was taken out and was reanimated by artificial breathing. The retention trial was carried out after 24 hours. In the retention trial, the mouse was again placed in the light compartment, the time till the movement to the dark compartment was measured as a reaction latency until maximum 300 seconds and the mouse showing latency beyond it was deemed as 300 seconds. In addition, immediately after aquisition trial, a group not to exposed to carbon dioxide gas (comparison group of non-amnesia) was also made. The mouse was grouped per 10 - 30, the subject medicament was orally administered immediately after exposed to carbon dioxide gas and one hour before the retention trial. Rate of improvement =(Latency of CO2 -drug treated group - Latency of carbon dioxide exposed group)/(Latency of non-dementia group - Latency of carbon dioxide exposed group)x 100 [formula]

CN1CCCC(OC(=O)Nc2ccccc2)C1 (centres unmarked) [Compound A, 3-(1-methylpiperidinyl) phenylcarbamate]
Reaction latency(sec) Mean±S.E (Dose 100 mg/kg): 175.3 ± 36.7 s
Rate of improvement (%) (Dose 100 mg/kg): 15.2%

O=C(Nc1ccc(Cl)cc1)OC1CCN(c2ccncc2)CC1 [Example 2]
Reaction latency(sec) Mean±S.E (Dose 10 mg/kg): 150.7 ± 27.1 s
Rate of improvement (%) (Dose 10 mg/kg): 42.9%
Reaction latency(sec) Mean±S.E (Dose 30 mg/kg): 231.2 ± 19.0 s
Rate of improvement (%) (Dose 30 mg/kg): 76.8%

O=C(Nc1ccc(Cl)cc1)OC1CCCN(c2ccncc2)C1 (centres unmarked) [Example 49]
Reaction latency(sec) Mean±S.E (Dose 10 mg/kg): 154.0 ± 27.2 s
Reaction latency(sec) Mean±S.E (Dose 30 mg/kg): 183.7 ± 26.3 s
Rate of improvement (%) (Dose 30 mg/kg): 45.3%

C1=Cc2cccc(OCC3CNCCO3)c2C1 (centres unmarked) [Indeloxazine]
Reaction latency(sec) Mean±S.E (Dose 40 mg/kg): 219.3 ± 17.8 s
Rate of improvement (%) (Dose 40 mg/kg): 30.1%
improving activity to disturbance of memory (summary in words of Table 1): vitiated or not enough

COC(=O)C1=C(C)NC(C)=C(C(=O)OCCN(C)Cc2ccccc2)C1c1cccc([N+](=O)[O-])c1 (centres unmarked) [Nicardipine]
Reaction latency(sec) Mean±S.E (Dose 5 mg/kg): 92.9 ± 28.1 s
Rate of improvement (%) (Dose 5 mg/kg): -59.8%

From patent EP0497303B1, “Carbamic acid derivatives and method for preparing the same” (KYORIN PHARMACEUTICAL CO., LTD., priority 1991, dated 1992)
